Data from paper PMC9763021, “Comprehensive Assessment of Biomolecular Interactions of Morpholine-Based Mixed Ligand Cu(II) and Zn(II) Complexes of 2,2′-Bipyridine as Potential Anticancer and SARS-CoV-2 Agents: A Synergistic Experimental and Structure-Based Virtual Screening” (Bioinorganic Chemistry and Applications, 2022).

Columns and labels:
Bacillus cereus = assay: Agar disc diffusion, strain G; format: cell-based; design: (inhibition %): concentration or dose not given beside the values; conditions: for diameter of the clear zone inhibition: control = 6 mm
Procedure: In-vitro antimicrobial properties were evaluated for all samples by the agar disc diffusion method towards different fungal and bacterial strains. Additionally, the reported inhibition zone values were comparatively analyzed with the standard antifungal drugs ketoconazole and amphotericin B as well as the standard antibiotic medications streptomycin and amikacin.
The current research has a curious focus on the in vitro antimicrobial properties of biological systems because these studies are crucial for developing effective antibacterial and antifungal medications. […] It can also be spelled out based on the chelation theory proposed by Overtone and Tweedy. Chelation theory points out that the partial exchanging of the positive charge of the metal center with donor moieties, and overlap of the ligand orbitals will reduce the greater degree of the metal ion's polarity, which ultimately rises the delocalization of π and d electrons over the full chelated ring system. By raising the size of the metal ion due to the retarding of polarization, chelation may also enhance the complexes' lipophilic characteristics, which further stimulate the lipid membrane permeability and break down the bacteria' enzymes responsible for cell wall formation, therefore slowing down the regular cell processes. By preventing the production of cell walls/proteins/DNA, including by obstructing folate metabolism and the cytoplasmic membrane, antimicrobial drugs frequently either fully eliminate microbes or only prevent their cell growth. Additionally, the samples' mode of action may be employed in disrupting the cell's respiration process by forming an H-bond during the morpholine-fused iminic group coordinated with the active metal center of its components, inhibiting proliferation of the cell. […] The difference in the antimicrobial efficacy of some of the compounds towards various microorganisms influences on the impermeability of the cells of the germs or the diversity of ribosomes of the microbes. The % of the inhibition of all substances is estimated from (45) (Table 9).
(A, B, C, D, and E are represented as gram negative bacteria species Escherichia coli, Salmonella enteric serovar typhi, Salmonella enteric serovar typhi, Pseudomonas aeruginosa, and Shigella flexneri, respectively. F & G are denoted as gram positive bacteria species Staphylococcus aureus and Bacillus cereus. H, I, and J are represented as fungal strains Aspergillus niger, Candida albicans, and Mucor indicus. Standard drugs for bacterial strains: Amikacin & Streptomycin Standard drugs for fungal strains: Ketoconazole and Amphotericin B. [Control (DMSO) = 6 mm].(44) Inhibition %=T–C/T×100, where T and C are represented as the diameter of microbial growth of the sample plates and the control plate (6 mm), respectively. Error limits ±2.5–5.0% (P ≤ 0.05).

BSA = BSA (Bos taurus, UniProt P02769); assay: BSA fluorescence quenching (emission titration); format: binding, bovine; conditions: values in brackets; for KSV (BSA), SV method I: 350 nm; for P (BSA), ratio of fluorescence quantum efficiency: F/F0 vs 1/[BSA]; for Kq (BSA), SV method I: Kq=KSV/τ0; for ∆Gb° (BSA), SV method II: –RT lnKass
Procedure: The experiment was performed in the 200 to 800 nm region. This is supporting evidence for the complexes' manner of deoxyribonucleic acid binding. When DNA (200 μM) was present or absent, we carefully monitored the intensity variations between 610 nm and 510 nm during the initial emission and excitation of EB [6, 28, 37]. Similarly, emission titrations for BSA interaction with different concentrations between 2.5 μM and 25 μM for all substances were conducted in a Tris-HCl buffer solution (pH: 7.4) between the regions of 300 nm and 400 nm.
K SV is denoted as Stern–Volmer binding constant; Kass is represented as association binding constant; Kapp is represented as apparent binding constant, Kapp=KEB[EB]/[compound]=500/[compound], KEB = 10^7 M^−1 at the concentration of 50 μM EB; Gibb's free energy change ΔGb°=–RT lnKass; Kq is represented as bimolecular quenching rate constant/Stern–Volmer dynamic quenching rate constant (Kq=KSV/τ0), average life time of the biomolecular quenching in the absence of a quencher (τ0) = 10^−8 S; Gibb's free energy change ΔGb°=–RT lnKass (where R = […], T = 298 K); KLB is represented as Lineweaver–Burk (LWB) binding constant; KSA is represented as Scatchard association binding constant; Kapp is denoted as apparent binding constant; n is the number of binding sites; P is a ratio of fluorescence quantum efficiency of DNA bound and free complex (P=ɸb/ɸf), which is obtained as intercept from plot F/F0 vs. 1/[DNA], Error limit is ± 2.5% (P < 0.025).(12) Fcorr=Fobs×e^Aex×dex+Aem×dem/2=Fobs×e^Aex+Aem/2, where Fcorr and Fobs are represented as the IFE-corrected fluorescence and observed (uncorrected) emission intensities, respectively. dex and dem are denoted as the cuvette path lengths in the excitation and emission directions, respectively. Aex and Aem are represented as the change in absorbance at the excitation and fluorescence wavelengths, respectively.(13) F0 /F=1+KSVQ=1+Kq τ0, where [Q] is represented as the sample concentration, the emission intensities F0 and F of DNA/BSA in the absence and presence of the quencher (sample), respectively.(14) F0 /F−1=F0−F/F=KSVQlogF0−F/F=logKass+n logQ, (15) KEBEB=Kappcompound, (16) 1/F0−F=1/F0 KLBQ+1/F0 , (17) γ/CF =KSCn−γ, where γ = [(F0 − F)/F0], and CF is denoted as the concentration of sample alone.
Additionally, the intensity of bovine serum albumin was monitored at 350 nm (λex = 278 nm) during fluorescence titration. When increasing the sample concentrations, the BSA intensity diminishes dramatically owing to static quenching in the ground state. It is noted that the fluorophores of BSA are not clearly exposed to a shift in polarity. […] Additionally, the Stern–Volmer equations (12)-(13) were employed to analyze the data (Figure S27 and Table 4). […] They are also much exceeded compared to the collision quenching constant value (2.0 × 10^10 mol^−1·s^−1). Therefore, it is assumed that the static quenching process was brought on by adduct construction between the compounds and bovine serum albumin rather than a dynamic collision. However, fluorescence spectroscopy is generally plagued by the inner filter effect (IFE), which disturbs the spectral analysis in particular. The energizing ray is attenuated due to the highly concentrated solution sample. As a result, strong fluorescence is only seen on surfaces facing the excitation beam. The fluorescence intensity is reduced as a result of an inner filter effect generated by some chemicals' absorption of the excitation or emission wavelength in the UV province. The observed values of the absorption wavelength of ligand (HL) and mixed ligand complexes (1a-2a) in the range of 335–337 nm, the bovine serum albumin excitation wavelength of 278 nm, and emission wavelength of 350 nm were used to assess the effect of IFE in this approach. Equation (12) is employed to solve IFE in this instance as well (Table 4). […]

Q: What does the source list for `Oc1ccccc1N=Cc1ccc(N2CCOCC2)cc1` [(HL), 2-(4-morpholinobenzylideneamino)phenol]?
A: (inhibition %) (Bacillus cereus): 33%; diameter of the clear zone inhibition (Bacillus cereus): 09 mm; Kass (BSA), SV method II (BSA): 10620 M⁻¹; n (BSA), SV method II (BSA): 0.926; KSV (BSA), SV method I (BSA): 26390 M⁻¹; P (BSA), ratio of fluorescence quantum efficiency (BSA): 0.464; Kq (BSA), SV method I (BSA): 2.639e+12 M⁻¹ s⁻¹; ∆Gb° (BSA), SV method II (BSA): −23.0 kJM^−1

Q: Which results are given for `[Cu+2].[O-]c1ccccc1N=Cc1ccc(N2CCOCC2)cc1.[O-]c1ccccc1N=Cc1ccc(N2CCOCC2)cc1.c1ccc(-c2ccccn2)nc1` [(1a), [Cu(L)2(bpy)]]?
A: (inhibition %) (Bacillus cereus): 54%; diameter of the clear zone inhibition (Bacillus cereus): 13 mm; Kass (BSA), SV method II (BSA): 87340 M⁻¹; n (BSA), SV method II (BSA): 1.059; KSV (BSA), SV method I (BSA): 86910 M⁻¹; P (BSA), ratio of fluorescence quantum efficiency (BSA): 0.252; Kq (BSA), SV method I (BSA): 8.691e+12 M⁻¹ s⁻¹; ∆Gb° (BSA), SV method II (BSA): −28.2 kJM^−1

Q: With `[O-]c1ccccc1N=Cc1ccc(N2CCOCC2)cc1.[O-]c1ccccc1N=Cc1ccc(N2CCOCC2)cc1.[Zn+2].c1ccc(-c2ccccn2)nc1` [(2a), [Zn(L)2(bpy)]] as the compound, how does the “(inhibition %)” value (Bacillus cereus) read?
A: 57%

Q: And the “diameter of the clear zone inhibition” value (Bacillus cereus)?
A: 14 mm

Q: And the “Kass (BSA), SV method II” value (BSA)?
A: 52910 M⁻¹

Q: What about the “n (BSA), SV method II” value (BSA) of the same compound?
A: 1.041

Q: And the “KSV (BSA), SV method I” value (BSA)?
A: 48050 M⁻¹

Q: What about the “P (BSA), ratio of fluorescence quantum efficiency” value (BSA) of the same compound?
A: 0.348

Q: And the “Kq (BSA), SV method I” value (BSA)?
A: 4.805e+12 M⁻¹ s⁻¹

Q: What about the “∆Gb° (BSA), SV method II” value (BSA) of the same compound?
A: −26.9 kJM^−1
